Legend:
[1] = test system: homozygous PPO2_F4201 sunflower (HA452-M); assay: Greenhouse PPO cross-tolerance trial, mutant (Example 7); format: in vivo; details: for recovery of PPO2_F4201 plants after early phytotoxicity at 4 DAT: 10 DAT; for survival of PPO2_F4201 plants: all rates tested, MSO 1% v/v
Description: (§1) In August of 2021, a greenhouse herbicide trial was carried out in Zwijnaarde, Belgium. A homozygous PPO2_F4201 sunflower seed lot (HA452-M), and a wild type (WT) sunflower line (RHA473) were used in the greenhouse trial. Sixteen homozygous PPO2_F4201 mutant plants and six WT plants were sown and treated with each herbicide. […]

[2] = test system: Wild Type (WT) sunflower line; assay: Field PPO cross-tolerance trial, wild type (Example 8); format: in vivo; details: for Phytotoxicity (%) Wild Type (WT) 6DAT / Phytotoxicity (%) Wild Type (WT) 11DAT / Phytotoxicity (%) Wild Type (WT) 14DAT: MSO 1% v/v
Description: (§2) A field trial was carried out to assess PPO cross-tolerance in non-introgressed, selfed, homozygous PPO2_F4201 mutants, as well as to assess tolerance differences using increasing rates of herbicides listed in Table 5. The field trial was done in Utrera, Spain, in September of 2021.
(§3) Herbicide treatments (Table 5) were applied in the field when plants had the BBCH12-14 growth stage (2-4 leaves). The field trial design was the randomized complete block design, and 1 replication was considered due to limitation in seed availability. Two entries were used in the field trial, the WT line and the PPO2_F4201 mutant. The experimental plot consisted of 1 entry per plot and 1 row per entry.
(§4) Phytotoxicity of mutant and WT entries was recorded over time, at 6, 11 and 14 DAT, where 100% phytotoxicity indicates complete control (dead plants), and 0% phytotoxicity indicates no control or alive plants without any herbicide injury.

[3] = test system: wild type (WT) sunflower line (RHA473); assay: Greenhouse PPO cross-tolerance trial, wild type (Example 7); format: in vivo
Description: as §1

[4] = test system: PPO2_F420I Mutant sunflower; assay: Field PPO cross-tolerance trial, mutant (Example 8); format: in vivo; details: for Phytotoxicity (%) PPO2_F420I Mutant 6DAT / Phytotoxicity (%) PPO2_F420I Mutant 11DAT / Phytotoxicity (%) PPO2_F420I Mutant 14DAT: MSO 1% v/v
Description: as §2, §3, §4

wild-type PPO2 enzyme = wild-type PPO2 enzyme (Helianthus annuus, UniProt A0A251TWC2); assay: In vitro PPO inhibition assay, wild type enzyme (Example 5); format: biochemical, sunflower
Sequence of wild-type PPO2 enzyme (A0A251TWC2 entry or part of it): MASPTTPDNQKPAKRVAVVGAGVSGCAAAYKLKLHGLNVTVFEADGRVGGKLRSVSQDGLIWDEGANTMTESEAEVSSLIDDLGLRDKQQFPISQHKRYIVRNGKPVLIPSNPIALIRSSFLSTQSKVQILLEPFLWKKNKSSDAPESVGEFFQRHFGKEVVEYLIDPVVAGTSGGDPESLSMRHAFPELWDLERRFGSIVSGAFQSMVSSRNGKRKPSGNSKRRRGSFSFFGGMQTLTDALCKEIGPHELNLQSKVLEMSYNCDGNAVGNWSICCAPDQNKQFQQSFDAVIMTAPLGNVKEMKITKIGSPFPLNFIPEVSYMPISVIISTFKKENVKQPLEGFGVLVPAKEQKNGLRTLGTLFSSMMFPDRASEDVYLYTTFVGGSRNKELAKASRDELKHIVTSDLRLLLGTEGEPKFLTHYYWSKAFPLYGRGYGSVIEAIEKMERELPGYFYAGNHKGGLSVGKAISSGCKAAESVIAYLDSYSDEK
Excerpt: (§5) To test whether the PPO2_F383I is the main cause of the observed saflufenacil tolerance, we used an in vitro to compare the inhibition potency (IC50) of different PPO inhibiting herbicides between wild-type and mutant PPO2 enzyme. The in vitro assay assesses the oxidation of protoporphyrinogen IX to protoporphyrin IX, catalyzed by the PPO enzyme. Both the wild type and mutant PPO2 proteins were heterologously expressed in E. coli and purified. Purified protein was mixed with different concentrations of the herbicide ranging from 10^−5M to 10^−11M and protein activity was measured. Protein activity is defined as the fluorescence per minute that the reaction generates. In the reaction, the purified PPO enzyme is mixed with substrate protoporphyrinogen IX and the herbicide. The product of the reaction is excited at 405 nm and produces a fluorescence at 630 nm which we detect. IC50 (in Mol) and tolerance factor were calculated.

[5] = molecular target: PPO2_F383I mutant PPO2 enzyme (Helianthus annuus, UniProt A0A251TWC2, F383I); assay: In vitro PPO inhibition assay, mutant enzyme (Example 5); format: biochemical, sunflower
Sequence of PPO2_F383I mutant PPO2 enzyme (Helianthus annuus, UniProt A0A251TWC2, F383I) (A0A251TWC2 entry or part of it F383I): as the sequence (A0A251TWC2 entry or part of it) above, with F383I counted along it
Excerpt: as §5

[6] = test system: PPO2_F383I mutant PPO2 enzyme; assay: as above; format: biochemical, sunflower; details: PPO2_F383I versus wild type IC50
Excerpt: as §5

[7] = test system: susceptible wild type (HA452) line; assay: Greenhouse re-assessment of saflufenacil tolerance, wild type reference (Example 3); format: in vivo, Helianthus annuus
Excerpt: (§6) As it is not uncommon that in forward field mutant screening for herbicide tolerance ‘false’ tolerant plants are selected, the field candidates were reassessed in the greenhouse. Field harvested seeds of the mutant lead LIH16358 were planted in the greenhouse on Nov. 26, 2019, in Limburgerhof, Germany. The greenhouse trial had the objective to verify if the progeny of mutant lead LIH16358 would survive treatment with saflufenacil. Seeds of the susceptible wild type (HA452) line were planted in the same greenhouse trial as the susceptible reference. Saflufenacil was sprayed at 2.5 g a.i./ha on Dec. 10, 2019. The 2.5 g a.i./ha of saflufenacil corresponds to 12.5 g a.i./ha in field conditions. The final phytotoxicity evaluation in the treated plants was done on Dec. 24, 2019.
(§7) The tolerant progeny individuals of mutant lead LIH16358 produced seeds, which were planted in a follow up greenhouse trial on May 19, 2020. The plants were sprayed with 2.0 g a.i./ha of saflufenacil on Jun. 3, 2020.

PPO2_F383I mutant lines = assay: Advanced field trial with saflufenacil, Utrera 2021 (Example 4); format: in vivo, Helianthus annuus
Description: M6 seed of eleven lines all originating from the nine plants carrying the PPO2_F383I mutation but with a different pedigree were assessed in an advanced field trial. The advanced field trial was manually planted in Utrera, Spain, on May 3, 2021. One row per mutant entry per plot was considered, and thirty-two seeds were planted per mutant entry per row per plot. Saflufenacil was applied in four increasing rates (0×: 0 g a.i/ha, 0.5×=12.5 g a.i./ha; 1×=25 g a.i./ha and 2×=50 g a.i./ha) when plants were at the BBCH12-14 growth stage. Saflufenacil application took place on Jul. 26, 2021. The field trial design was a strip-block design with four replications.
Phytotoxicity evaluations were done at 2, 5, 12, 19 and 26 days after treatment (DAT) with saflufenacil. As discussed previously, phytotoxicity of the mutant entries and wild type control were scored in each of the evaluation days after saflufenacil treatment. Eleven mutant lines were tested. The field tested one mutant line per row 32 seeds per row, for each saflufenacil rate treatment and replication, this means every plot was made of a single row, so the plot was the row for each mutant line. The phytotoxicity % score was given for each row in comparison to the untreated row of the same mutant line (control), meaning all 11 mutant lines were assessed for phytotoxicity % in all treatments and replications. Phytotoxicity was visually recorded at each evaluation time after saflufenacil application on a per plot basis based on the rating scale table (below).
To better reflect the tolerance of surviving plants, data were expressed in percent herbicide tolerance efficacy by using the formula below:
where: • 0% means no tolerance • 100% means full tolerance

[8] = test system: progeny of mutant lead LIH16358 (PPO2_F383I); assay: Greenhouse re-assessment of saflufenacil tolerance, mutant progeny (Example 3); format: in vivo, Helianthus annuus
Excerpt: as §6, §7

[9] = test system: conventional sunflowers (Edison, ES Coloris Clearfield, inbred line HA452); assay: Field trials of sunflower sensitivity to saflufenacil (Example 1); format: in vivo, Helianthus annuus
Description: Research was conducted to evaluate the sensitivity of sunflower to the herbicide comprising the active ingredient (AI) saflufenacil (Trade name: Kixor™). The herbicide was applied in 2 field trials at different rates ranging from 0.91 g to 14 g a.i./ha (with 0.5-1% MSO-methylated seed oil-adjuvant) to 2 commercial sunflower varieties [a) a conventional (non-herbicide tolerant) sunflower (“Edison”) which is a linoleic oil-type sunflower, and b) a herbicide tolerant sunflower (“ES Coloris Clearfield which is a linoleic oil-type sunflower] and a public inbred line HA452, from the USDA (United States Department of Agriculture) National Plant Germplasm System (NPGS), deposited under Accession No. PI 642771. The treated plants were at the 2-to-4 leaf-stage (BBCH12-14). Trials were set up in a randomized complete block design with 3 replications and rated for herbicide phytotoxicity (percentage damage) 3, 7, 10 and 14 days after treatment (see also Example 4 for more details). Herbicide phytotoxicity ranges from 0% phytotoxicity (full tolerance) to 100% phytotoxicity (full susceptibility or absence of tolerance).
Full control of all sunflower materials was even observed at the first phytotoxicity evaluation time point, 3 days after treatment (DAT) with saflufenacil (results not shown).
The second field trial (trial 2) compared the adjuvant MSO at two concentrations: 1% v/v, concentration used by the farmer and 0.5%, half the concentration (FIG. 2). With the MSO concentration of 0.5% v/v, which lowers the general herbicidal efficacy of saflufenacil in weeds, control of all sunflower materials was around 80% at the lowest rate of saflufenacil (0.91 g a.i./ha) and 100% at 1.75 g a.i./ha and higher (FIG. 2).

C#CCN1C(=O)COc2cc(F)c(N3C(=O)C4=C(CCCC4)C3=O)cc21 [Flumioxazin]
recovery of PPO2_F4201 plants after early phytotoxicity at 4 DAT [1]: consistent survival and recovery | survival of PPO2_F4201 plants [1]: survived at all rates | Phytotoxicity (%) Wild Type (WT) 6DAT ([2]; 45 g a.i./ha): 80% | Phytotoxicity (%) Wild Type (WT) 11DAT ([2]; 45 g a.i./ha): 75% | Phytotoxicity (%) Wild Type (WT) 14DAT ([2]; 45 g a.i./ha): 75% | Phytotoxicity (%) Wild Type (WT) 6DAT ([2]; 55 g a.i./ha): 80% | Phytotoxicity (%) Wild Type (WT) 11DAT ([2]; 55 g a.i./ha): 70% | Phytotoxicity (%) Wild Type (WT) 14DAT ([2]; 55 g a.i./ha): 70% | Phytotoxicity (%) Wild Type (WT) 6DAT ([2]; 65 g a.i./ha): 85% | Phytotoxicity (%) Wild Type (WT) 11DAT ([2]; 65 g a.i./ha): 80% | Phytotoxicity (%) Wild Type (WT) 14DAT ([2]; 65 g a.i./ha): 80% | WT control level ([2]; across flumioxazin rates (45, 55, 65 g a.i./ha)): 75-80% | surviving WT plants ([3]; 4 g/ha, 10 DAT): one | phytotoxicity score of WT plants ([3]; dose as low as 4 g/ha, greenhouse): 90-100% | Phytotoxicity (%) PPO2_F420I Mutant 6DAT ([4]; 45 g a.i./ha): 20% | Phytotoxicity (%) PPO2_F420I Mutant 11DAT ([4]; 45 g a.i./ha): 20% | Phytotoxicity (%) PPO2_F420I Mutant 14DAT ([4]; 45 g a.i./ha): 10% | Phytotoxicity (%) PPO2_F420I Mutant 6DAT ([4]; 55 g a.i./ha): 30% | Phytotoxicity (%) PPO2_F420I Mutant 11DAT ([4]; 55 g a.i./ha): 25% | Phytotoxicity (%) PPO2_F420I Mutant 14DAT ([4]; 55 g a.i./ha): 15% | Phytotoxicity (%) PPO2_F420I Mutant 6DAT ([4]; 65 g a.i./ha): 30% | Phytotoxicity (%) PPO2_F420I Mutant 11DAT ([4]; 65 g a.i./ha): 30% | Phytotoxicity (%) PPO2_F420I Mutant 14DAT ([4]; 65 g a.i./ha): 20%

CC(C)N(C)S(=O)(=O)NC(=O)c1cc(-n2c(=O)cc(C(F)(F)F)n(C)c2=O)c(F)cc1Cl [Saflufenacil]
recovery of PPO2_F4201 plants after early phytotoxicity at 4 DAT [1]: consistent survival and recovery | survival of PPO2_F4201 plants [1]: survived at all rates | IC50 (wild-type PPO2 enzyme): 0.00146 µM | IC50 ([5]; IC50 for PPO2_F383I): 4.36 µM | IC50 ([5]; PPO2_F383I IC50, purified enzyme expressed in E. coli, herbicide 10^-5 M to 10^-11 M): 4.23 µM | Tolerance factor [6]: 2897 | Phytotoxicity (%) Wild Type (WT) 6DAT ([2]; 3.125 g a.i./ha): 100% | Phytotoxicity (%) Wild Type (WT) 11DAT ([2]; 3.125 g a.i./ha): 100% | Phytotoxicity (%) Wild Type (WT) 14DAT ([2]; 3.125 g a.i./ha): 100% | Phytotoxicity (%) Wild Type (WT) 6DAT ([2]; 6.25 g a.i./ha): 100% | Phytotoxicity (%) Wild Type (WT) 11DAT ([2]; 6.25 g a.i./ha): 100% | Phytotoxicity (%) Wild Type (WT) 14DAT ([2]; 6.25 g a.i./ha): 100% | phytotoxicity in the WT background ([2]; saflufenacil 3.125 and 6.25 g a.i./ha): 100% | phytotoxicity ([7]; 2.0 g a.i./ha, 14 DAT): 100% | control of wild type reference plants ([7]; 2.5 g a.i./ha): completely controlled and dead | kill of WT plants ([3]; dose as low as 1.25 g/ha, greenhouse, MSO 1% v/v): all killed | survival and seed production (PPO2_F383I mutant lines; 50 g a.i./ha in the field): survive and produce seeds | impact on days to 50% flowering versus untreated (PPO2_F383I mutant lines; across entries and saflufenacil rates): ≤ 5 days | tolerance efficacy (%) (PPO2_F383I mutant lines; all eleven mutant lines, all rates (12.5, 25, 50 g a.i./ha)): high tolerance efficacy | plant recovery (PPO2_F383I mutant lines; all rates including 2x (50 g a.i./ha)): start to significantly recover at 19 DAT | phytotoxicity at peak, compared to untreated controls (PPO2_F383I mutant lines; eleven mutant entries, field, 12.5, 25 and 50 g a.i./ha): higher than 15% | plant height, treated versus untreated (PPO2_F383I mutant lines; when flowering was completed, 73 DAT): untreated plants showed a greater plant height compared to treated plants | phytotoxicity of individuals ([8]; 2.0 g a.i./ha, second generation progenies, 14 DAT): ≥ 25% | survival after treatment ([8]; 2.5 g a.i./ha, first generation progeny): survived saflufenacil treatment | Phytotoxicity (%) PPO2_F420I Mutant 6DAT ([4]; 3.125 g a.i./ha): 40% | Phytotoxicity (%) PPO2_F420I Mutant 11DAT ([4]; 3.125 g a.i./ha): 35% | Phytotoxicity (%) PPO2_F420I Mutant 14DAT ([4]; 3.125 g a.i./ha): 35% | Phytotoxicity (%) PPO2_F420I Mutant 6DAT ([4]; 6.25 g a.i./ha): 45% | Phytotoxicity (%) PPO2_F420I Mutant 11DAT ([4]; 6.25 g a.i./ha): 40% | Phytotoxicity (%) PPO2_F420I Mutant 14DAT ([4]; 6.25 g a.i./ha): 40% | survival of the PPO2_F4201 mutant ([4]; all rates of saflufenacil): survives | maximum phytotoxicity in the PPO2_F4201 mutants ([4]; at 11 and 14 DAT): 40% | phytotoxicity ([9]; 0.91 g a.i./ha, 1% v/v MSO): 100% | control of sunflower materials ([9]; 1% MSO v/v, all applied rates (0.91 to 14 g a.i./ha), field trial 2): total control | control of all sunflower materials ([9]; 1.75 g a.i./ha and higher, MSO 0.5% v/v, field trial 2): 100% | control of all sunflower materials ([9]; field trial 1, 3 days after treatment): Full control | control of all three sunflower materials ([9]; field trial 1, lowest saflufenacil rate, after 14 days): completed controlled

Reference: patent publication US20250000043A1, “NON-TRANSGENIC SUNFLOWER PLANTS HAVING INCREASED TOLERANCE TO HERBICIDES” (BASF Agricultural Solutions Seed US LLC, priority 2021, published 2025)
